Assay results published in PubChem BioAssay AID1919009 (Molecular Pharmacology Branch, DTP, NCI, 2023).

Test system: K24384-001-R-PDC complex spheroid growth
Assay: Anticancer human tumor K24384-001-R-PDC patient-derived pancreatic adenocarcinoma cell line growth inhibition [AhR]
Details: for IC50: curve of first compound; for viability, T/C: stronger effect = lower value
Method in brief: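 Complex tumor spheroids co-cultured with HUVEC and human MSC stroma; AhR antagonists tested in combination with standard-of-care and investigational agents. Top concentration at or near clinical Cmax (else 10 microM), half-log dilutions; growth expressed as percent test/control.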

[1] = second compound 0.1 µM, first compound 0.0316 µM
[2] = second compound 0.1 µM, first compound 0.1 µM
[3] = second compound 0.1 µM, first compound 0.316 µM
[4] = second compound 0.1 µM, first compound 1 µM
[5] = second compound 0.1 µM, first compound 3.16 µM
[6] = second compound 0.1 µM, first compound 10 µM
[7] = second compound 0.316 µM, first compound 0.0316 µM
[8] = second compound 0.316 µM, first compound 0.1 µM
[9] = second compound 0.316 µM, first compound 0.316 µM
[10] = second compound 0.316 µM, first compound 1 µM
[11] = second compound 0.316 µM, first compound 3.16 µM
[12] = second compound 0.316 µM, first compound 10 µM
[13] = second compound 1 µM, first compound 0.0316 µM
[14] = second compound 1 µM, first compound 0.1 µM
[15] = second compound 1 µM, first compound 0.316 µM
[16] = second compound 1 µM, first compound 1 µM
[17] = second compound 1 µM, first compound 3.16 µM
[18] = second compound 1 µM, first compound 10 µM
[19] = second compound 3.16 µM, first compound 0.0316 µM
[20] = second compound 3.16 µM, first compound 0.1 µM
[21] = second compound 3.16 µM, first compound 0.316 µM
[22] = second compound 3.16 µM, first compound 1 µM
[23] = second compound 3.16 µM, first compound 3.16 µM
[24] = second compound 3.16 µM, first compound 10 µM
[25] = second compound 10 µM, first compound 0.0316 µM
[26] = second compound 10 µM, first compound 0.1 µM
[27] = second compound 10 µM, first compound 0.316 µM
[28] = second compound 10 µM, first compound 1 µM
[29] = second compound 10 µM, first compound 3.16 µM
[30] = second compound 10 µM, first compound 10 µM
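Throughout, for viability, T/C: percent of DMSO vehicle-treated spheroid viability set as 100%.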

Q: Which IC50 (second compound 0.1 µM) does the source give for `CC(C)c1c(-c2ccccc2)nc2c(C#N)c[nH]n2c1=O` + Cc1ccccc1N=Nc1ccc(NC(=O)c2ccnn2C)c(C)c1 here?
A: The IC50 was > 10000 nM.

Q: And the IC50 (second compound 0.316 µM)?
A: The IC50 was > 10000 nM.

Q: What about the IC50 (second compound 1 µM) of the same compound?
A: Its IC50 is > 10000 nM.

Q: And the IC50 (second compound 3.16 µM)?
A: The IC50 was > 10000 nM.

Q: And the IC50 (second compound 10 µM)?
A: The IC50 was > 10000 nM.

Q: What about the viability, T/C [1] of the same compound?
A: Its viability, T/C is 114%.

Q: What about the viability, T/C [2] of the same compound?
A: The viability, T/C was 121%.

Q: What about the viability, T/C [3] of the same compound?
A: The viability, T/C was 123%.

Q: And the viability, T/C [4]?
A: The viability, T/C was 108%.

Q: And the viability, T/C [5]?
A: The viability, T/C was 88.8%.

Q: What about the viability, T/C [6] of the same compound?
A: The viability, T/C was 86.2%.

Q: And the viability, T/C [7]?
A: Its viability, T/C is 112%.

Q: What about the viability, T/C [8] of the same compound?
A: Its viability, T/C is 124%.

Q: What about the viability, T/C [9] of the same compound?
A: Its viability, T/C is 121%.

Q: What about the viability, T/C [10] of the same compound?
A: Its viability, T/C is 128%.

Q: And the viability, T/C [11]?
A: The viability, T/C was 104%.

Q: What about the viability, T/C [12] of the same compound?
A: Its viability, T/C is 89.7%.

Q: And the viability, T/C [13]?
A: Its viability, T/C is 117%.

Q: And the viability, T/C [14]?
A: Its viability, T/C is 109%.

Q: What about the viability, T/C [15] of the same compound?
A: The viability, T/C was 113%.

Q: And the viability, T/C [16]?
A: Its viability, T/C is 103%.

Q: What about the viability, T/C [17] of the same compound?
A: The viability, T/C was 105%.

Q: And the viability, T/C [18]?
A: The viability, T/C was 109%.

Q: What about the viability, T/C [19] of the same compound?
A: Its viability, T/C is 98.2%.

Q: And the viability, T/C [20]?
A: Its viability, T/C is 109%.

Q: What about the viability, T/C [21] of the same compound?
A: The viability, T/C was 124%.

Q: What about the viability, T/C [22] of the same compound?
A: The viability, T/C was 114%.

Q: And the viability, T/C [23]?
A: The viability, T/C was 90.8%.

Q: What about the viability, T/C [24] of the same compound?
A: Its viability, T/C is 122%.

Q: What about the viability, T/C [25] of the same compound?
A: Its viability, T/C is 132%.

Q: And the viability, T/C [26]?
A: The viability, T/C was 141%.

Q: What about the viability, T/C [27] of the same compound?
A: The viability, T/C was 114%.

Q: What about the viability, T/C [28] of the same compound?
A: Its viability, T/C is 119%.

Q: And the viability, T/C [29]?
A: Its viability, T/C is 126%.

Q: What about the viability, T/C [30] of the same compound?
A: Its viability, T/C is 119%.

Q: How did the IC50 (second compound 0.1 µM) turn out when `CC[C@@]1(O)C(=O)OCc2c1cc1n(c2=O)Cc2cc3c(CN(C)C)c(O)ccc3nc2-1` + Cc1cncc(-c2nc(NCCc3c[nH]c4ccccc34)c3ncn(C(C)C)c3n2)c1 was run?
A: Its IC50 is 42.4 nM.

Q: And the IC50 (second compound 0.316 µM)?
A: Its IC50 is 42.2 nM.

Q: What about the IC50 (second compound 1 µM) of the same compound?
A: The IC50 was 30.7 nM.

Q: And the IC50 (second compound 3.16 µM)?
A: Its IC50 is > 100 nM.

Q: And the IC50 (second compound 10 µM)?
A: The IC50 was < 0.316 nM.

Q: What about the viability, T/C (second compound 0.1 µM, first compound 0.000316 µM) of the same compound?
A: Its viability, T/C is 97.6%.

Q: What about the viability, T/C (second compound 0.1 µM, first compound 0.001 µM) of the same compound?
A: The viability, T/C was 92.5%.

Q: What about the viability, T/C (second compound 0.1 µM, first compound 0.00316 µM) of the same compound?
A: The viability, T/C was 81.2%.

Q: And the viability, T/C (second compound 0.1 µM, first compound 0.01 µM)?
A: Its viability, T/C is 67.5%.

Q: And the viability, T/C [1]?
A: The viability, T/C was 55.5%.

Q: What about the viability, T/C [2] of the same compound?
A: Its viability, T/C is 37.4%.

Q: What about the viability, T/C (second compound 0.316 µM, first compound 0.000316 µM) of the same compound?
A: Its viability, T/C is 118%.

Q: What about the viability, T/C (second compound 0.316 µM, first compound 0.001 µM) of the same compound?
A: The viability, T/C was 100%.

Q: What about the viability, T/C (second compound 0.316 µM, first compound 0.00316 µM) of the same compound?
A: The viability, T/C was 87.9%.

Q: And the viability, T/C (second compound 0.316 µM, first compound 0.01 µM)?
A: The viability, T/C was 73.9%.

Q: What about the viability, T/C [7] of the same compound?
A: Its viability, T/C is 51.6%.

Q: What about the viability, T/C [8] of the same compound?
A: Its viability, T/C is 38.2%.

Q: What about the viability, T/C (second compound 1 µM, first compound 0.000316 µM) of the same compound?
A: The viability, T/C was 91.3%.

Q: What about the viability, T/C (second compound 1 µM, first compound 0.001 µM) of the same compound?
A: Its viability, T/C is 111%.

Q: And the viability, T/C (second compound 1 µM, first compound 0.00316 µM)?
A: The viability, T/C was 95.5%.

Q: And the viability, T/C (second compound 1 µM, first compound 0.01 µM)?
A: Its viability, T/C is 72.4%.

Q: And the viability, T/C [13]?
A: The viability, T/C was 49.1%.

Q: And the viability, T/C [14]?
A: The viability, T/C was 47%.

Q: And the viability, T/C (second compound 3.16 µM, first compound 0.000316 µM)?
A: The viability, T/C was 84.3%.

Q: What about the viability, T/C (second compound 3.16 µM, first compound 0.001 µM) of the same compound?
A: The viability, T/C was 93.8%.

Q: And the viability, T/C (second compound 3.16 µM, first compound 0.00316 µM)?
A: Its viability, T/C is 86.4%.

Q: What about the viability, T/C (second compound 3.16 µM, first compound 0.01 µM) of the same compound?
A: Its viability, T/C is 59.3%.

Q: And the viability, T/C [19]?
A: The viability, T/C was 52%.

Q: What about the viability, T/C [20] of the same compound?
A: Its viability, T/C is 49.4%.

Q: And the viability, T/C (second compound 10 µM, first compound 0.000316 µM)?
A: Its viability, T/C is 12.7%.

Q: What about the viability, T/C (second compound 10 µM, first compound 0.001 µM) of the same compound?
A: The viability, T/C was 10.1%.

Q: What about the viability, T/C (second compound 10 µM, first compound 0.00316 µM) of the same compound?
A: Its viability, T/C is 14.5%.

Q: And the viability, T/C (second compound 10 µM, first compound 0.01 µM)?
A: Its viability, T/C is 7.56%.

Q: And the viability, T/C [25]?
A: The viability, T/C was 5.07%.

Q: What about the viability, T/C [26] of the same compound?
A: The viability, T/C was 6.81%.

Q: Which IC50 (second compound 0.1 µM) does the source give for `COc1cc(C2c3cc4c(cc3C(OC3OC5COC(C)OC5C(O)C3O)C3COC(=O)C23)OCO4)cc(OC)c1O` (stereo not given) + Cc1cncc(-c2nc(NCCc3c[nH]c4ccccc34)c3ncn(C(C)C)c3n2)c1 here?
A: Its IC50 is 563 nM.

Q: And the IC50 (second compound 0.316 µM)?
A: The IC50 was 722 nM.

Q: And the IC50 (second compound 1 µM)?
A: The IC50 was 1650 nM.

Q: What about the IC50 (second compound 3.16 µM) of the same compound?
A: The IC50 was 806 nM.

Q: What about the IC50 (second compound 10 µM) of the same compound?
A: The IC50 was < 31.6 nM.

Q: What about the viability, T/C [1] of the same compound?
A: Its viability, T/C is 88.4%.

Q: And the viability, T/C [2]?
A: The viability, T/C was 109%.

Q: And the viability, T/C [3]?
A: Its viability, T/C is 62.5%.

Q: What about the viability, T/C [4] of the same compound?
A: The viability, T/C was 41.3%.

Q: And the viability, T/C [5]?
A: The viability, T/C was 40%.

Q: And the viability, T/C [6]?
A: Its viability, T/C is 31.1%.

Q: What about the viability, T/C [7] of the same compound?
A: Its viability, T/C is 101%.

Q: And the viability, T/C [8]?
A: Its viability, T/C is 107%.

Q: And the viability, T/C [9]?
A: Its viability, T/C is 68.1%.

Q: What about the viability, T/C [10] of the same compound?
A: The viability, T/C was 47.2%.

Q: And the viability, T/C [11]?
A: The viability, T/C was 35.4%.

Q: What about the viability, T/C [12] of the same compound?
A: The viability, T/C was 33.8%.

Q: And the viability, T/C [13]?
A: The viability, T/C was 101%.

Q: And the viability, T/C [14]?
A: The viability, T/C was 90.2%.

Q: What about the viability, T/C [15] of the same compound?
A: Its viability, T/C is 81.3%.

Q: What about the viability, T/C [16] of the same compound?
A: The viability, T/C was 54.8%.

Q: What about the viability, T/C [17] of the same compound?
A: The viability, T/C was 42.1%.

Q: What about the viability, T/C [18] of the same compound?
A: Its viability, T/C is 35.2%.

Q: What about the viability, T/C [19] of the same compound?
A: Its viability, T/C is 105%.

Q: And the viability, T/C [20]?
A: The viability, T/C was 81.8%.

Q: And the viability, T/C [21]?
A: The viability, T/C was 86.4%.

Q: What about the viability, T/C [22] of the same compound?
A: The viability, T/C was 41.2%.

Q: What about the viability, T/C [23] of the same compound?
A: Its viability, T/C is 37.1%.

Q: What about the viability, T/C [24] of the same compound?
A: The viability, T/C was 30.2%.

Q: And the viability, T/C [25]?
A: Its viability, T/C is 13.1%.

Q: What about the viability, T/C [26] of the same compound?
A: Its viability, T/C is 15.2%.

Q: And the viability, T/C [27]?
A: Its viability, T/C is 13.7%.

Q: What about the viability, T/C [28] of the same compound?
A: The viability, T/C was 5.82%.

Q: What about the viability, T/C [29] of the same compound?
A: Its viability, T/C is 6.89%.

Q: What about the viability, T/C [30] of the same compound?
A: The viability, T/C was 5.29%.
